Data reported in patent US10118922B2 (Janssen Pharmaceutica NV, priority 2013, dated 2018).

Assays:
C57bl/6J Mice = assay: GPR120 C57bl6 mouse IPGTT; type: in vivo; conditions: dosed 30 min prior to glucose IP 1.5 g/kg
Protocol: (§1) Male, C57bl/6J Mice were ordered in at 8 weeks of age from Jackson Labs. Individual mice weighed anywhere in the range of 25-30 grams on study day. The mice were fasted, with removal of food occurring at 7 am on the morning of the study. Animals were moved into the room at 10:00 am, to give them time to acclimate. Glucose (insulin syringes) was drawn up either the night before or the morning of the study. Glucose was dosed (IP) at 1.5 g/kg at 7.5 ml/kg (20% glucose straight TEKNOVA, 250 ml sterile bottle w/ catalogue number G0525). Test compounds were kept spinning and were only drawn into the syringes prior to study commencement. Animals were bled via tail snip to determine basal glucose levels prior to dosing of treatments. An Ascensia BREEZE Blood Glucose Monitoring System by Bayer (using unique 10-test disks) was used for determining glucose levels. The bleeds started at approximately 12:45 pm and dosing started, at 1-minute intervals, immediately after. All groups were dosed 30 minutes prior to glucose administration at a dose volume of 10 ml/kg (the dose volume was calculated separately for each individual animal). Thirty minutes after the first dose animals were bled again for a second baseline, or T=0, and immediately dosed with glucose via an i.p. injection. The exact dose volume for glucose was also calculated separately for each individual animal. Glucose measurements were taken at −30 min prior to compound dose, at t=0 (immediately prior to glucose dose), and at 15, 30, 45, 60, 90 min post glucose dose.
(§2) Glucose values were entered into an Excel sheet and graphed in GraphPad Prism. The following were calculated from Prism: Change from −30 to 0 BSLN Glucose, Raw Glucose AUC −30 to 90 min, Delta Glucose AUC −30 to 90 min, Raw Glucose AUC 0 to 90 min, Delta Glucose AUC 0 to 90 min.

C57b16 mouse = C57b16 mouse OGTT; type: in vivo; conditions: dosed 30 min prior to glucose PO 3 g/kg
Protocol: as §1, §2
The assay design is the same as that described above for the C57b16 mouse IPGTT. The difference is that glucose was dosed PO at 3 g/kg, 7.5 ml/kg of 40% glucose.

[1] = molecular target: T1, short form of the GPR120 receptor (Homo sapiens, UniProt Q5NUL3); assay: Human GPR120 DiscoveRx PathHunter beta-arrestin assay, Procedure β-arrestin B; type: cell-based; conditions: PathHunter CHO-K1 GPR120S β-Arrestin cells, 5000 cells/well; read-out: hGPR120 β-arrestin B EC50
T1 construct: host or cells: PathHunter CHO-K1 GPR120S β-Arrestin Cell Line
T1 sequence (Q5NUL3 1-361): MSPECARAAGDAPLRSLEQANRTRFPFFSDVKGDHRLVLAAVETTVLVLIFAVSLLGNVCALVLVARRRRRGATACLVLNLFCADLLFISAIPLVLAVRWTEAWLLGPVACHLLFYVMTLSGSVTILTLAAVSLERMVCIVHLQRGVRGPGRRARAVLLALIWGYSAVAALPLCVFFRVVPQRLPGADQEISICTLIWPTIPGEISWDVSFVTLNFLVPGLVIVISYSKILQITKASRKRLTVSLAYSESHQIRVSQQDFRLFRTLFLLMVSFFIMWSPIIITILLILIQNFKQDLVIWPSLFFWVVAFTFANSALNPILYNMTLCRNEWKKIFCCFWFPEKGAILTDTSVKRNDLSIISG
Excerpt: The binding of an agonist (medium/long chain fatty acids or small molecule agonists) to the G-protein-coupled receptor GPR120 activates phospholipase C, leading to release of intracellular Ca^+2 through the generation of inositol 1,4,5-trisphosphate (InsP3 or IP3). GPR120 activation can also trigger intracellular signaling via recruitment of Beta-Arrestin. In the present method, agonist-induced activation of the human GPR120 receptor is monitored through the use of PathHunter CHO-K1 GPR120 Beta-Arrestin Cell Line engineered by DiscoveRx, as detailed below. The cell lines are designed to co-express both the ProLink/Enzyme Donor (PK)-tagged GPCR and the Enzyme […] (EA)-tagged Beta-Arrestin fusion proteins. Upon GPR120 receptor stimulation/activation, the EA-tagged Beta-Arrestin portion is translocated to the tagged receptor, where the two enzyme fragments are brought within close proximity. Under these conditions, these fragments can interact and form an active Beta-gal enzyme complex through Enzyme Fragment Complementation (EFC). This active Beta-gal complex can enzymatically hydrolyse the substrate to produce a detectable light signal; therefore, activation as a function of agonist concentration can be expressed as an EC50 value to determine relative compound activities. This in vitro assay therefore serves to assess compound agonist activity of the GPR120.
In Procedure β-arrestin B the cells used were PathHunter CHO-K1 GPR120S β-Arrestin Cell Line, expressing the short form of the GPR120 receptor (Accession #NM 181745), with 5000 cells/well.
The selected CHO-K1 GPR120 β-Arrestin cells were cultured in Ham's F12 media supplemented with 10% fetal bovine serum (FBS), 1% Glutamine, 1×p/s, 800 μg/mL G418 and 300 μg/mL Hygromycin B (for selection). Cell stocks were maintained and grown in a sub-confluent state using standard cell culture procedures. The day before the experiment, the cells were harvested with non-enzymatic cell dissociation buffer and re-suspended in complete growth media at the desired concentration. A Corning 384-plate was then seeded with the proper number of cells in a volume of 25 μL, per well. The seeded plates were incubated overnight at 37° C.
On the day of the experiment, the Assay Buffer containing (a) HBSS with Ca^++ and Mg^++, (b) 20 mM HEPES, and (c) 0.1% BSA stabilizer (pH 7.4) was prepared. The growth medium was gently removed from the cell plates and 20 μL of Assay Buffer added to each well. The plate was then incubated at 37° C. for 60 min. Test compounds were serially diluted in Assay Buffer to desired concentrations (more particularly to one or more of the following μM concentrations: 25, 12.5, 6.25, 3.125, 1.5625, 0.78125, 0.390625, 0.1953125, 0.09765625, 0.048828125, 0.024414063, 0.012207031). Five μL of compound dilution was then added to each well and the plate incubated at 37° C. for 90 min. The detection reagents were prepared according to the manufacture's instruction. Twelve μL of the detection reagents were added to each well and the plate incubated at room temperature for 60 min.
The plates were read on an EnVision instrument, using Protocol name: Luminescence, Plate type: 384 Costar, Measurement height: 3 mm, Measurement time: 1 s, Aperture: 384 Plate aperture. The % activity relative to the positive control was calculated using the following equation:
The % Activity values were plotted versus the concentration of test compound and fitted to a sigmoidal dose-response curve with a Hill slope=1 (fixed value) using nonlinear regression with GraphPad Prism 5.0 to calculate the EC50 values. The Fitting Equation was: Y=Bottom+(Top-Bottom)/(1+10^((Log EC50−X)*HillSlope)), where X is the log of the concentration and Y is the response.

Human GPR120 short form = molecular target: T2, Human GPR120 short form (Homo sapiens, UniProt Q5NUL3); assay: Human GPR120 calcium flux assay, Procedure Calcium A; type: cell-based; conditions: HEK-293 cells, FLIPR, 2500 cells/well; read-out: GPR120 Ca2+ Assay A EC50
T2 construct: expressed in transfected cells
T2 sequence (Q5NUL3 1-361): T1 sequence (Q5NUL3 1-361)
Protocol: These cells are first loaded with the Ca^+2 sensitive dye, Fluo-4 NR. Upon stimulation, intracellular released Ca^+2 can bind to the dye and alter its fluorescence intensity. This increase in fluorescence signal, and thus the flux in intracellular [Ca^2+], is detected and quantitated by fluorescence imaging using a FLIPR reader. The effect of the agonist is measured as a function of concentration and used to calculate an EC50 based upon a response curve.
In this procedure 2500 cells/well were employed.
A Human GPR120 clone (Genbank accession number NM_001195755.1) was placed into the pcDNA3.1 mammalian expression vector carrying the neomycin resistance gene. A stable mammalian cell was generated by placing the above clone into a HEK293 background. […] Cells were split 2 times a week to keep the cells in the log-phase growth.
In preparation for the assay, HEK cells stably transfected with Human GPR120 (2.5K cells per well in 25 uL growth medium) were seeded into 384-well plates and then incubated overnight (37° C., 5% CO2). The next day, the media was changed to 20 μL assay buffer and the cell starved for 1 h at 37° C. The dye loading solution (2× dye) was prepared using 10 mL assay buffer, 100 μL of 250 mM probenecid, 1 bottle of Component A, and 20 μl of dye in DMSO. Twenty μL of the 2× dye loading buffer was then added to each well. The plates were incubated at 37° C. for 30 min, then at room temperature for an additional 15 minutes, before performing the assay on FLIPR.
The assay was performed on a FLIPR plate reader using the following parameters. Baseline was read for 10 seconds at 1 sec intervals. The program was set to transfer 10 μL of ligand from compound plate to cell plate after baseline reading. Aspiration was executed at: 10 μL/sec speed, 4.6 μL height; Dispensing was executed at: 30 μL/sec speed, 45 μL height. After compound addition, each well was read for 300 sec, with measurements collected at 1 sec intervals.
The kinetic data from the FLIPR was based upon a 5 minute window for data collection. The fluorescence of each sample well was used for individual calculations of a normalized RFU value, which was defined as maximum response minus the minimum response. […] The Fitting Equation was: Y=Bottom+(Top-Bottom)/(1+10^((Log EC50−X)*HillSlope)), where X is the log of the concentration and Y is the response.

Row | SMILES | C57 IPGTT 3 mg/kg (C57bl/6J Mice) | C57 IPGTT 10 mg/kg (C57bl/6J Mice) | C57 OGTT 3 mg/kg (C57b16 mouse) | EC50 [1] | EC50 (Human GPR120 short form)
1 | Cc1c(CCC(=O)O)ccc(OCc2c(-c3ccc(Cl)cc3)nsc2C(F)(F)F)c1C [Cpd 142, 3-(4-((3-(4-chlorophenyl)-5-(trifluoromethyl)isothiazol-4-yl)methoxy)-2,3-dimethylphenyl)propanoic acid] | −34 | −61 | −49 | – | –
2 | COc1ccc(-c2csc(C(F)(F)F)c2COc2c(F)cc(CCCO)cc2F)cn1 [Cpd 38, 3-(3,5-difluoro-4-((4-(6-methoxypyridin-3-yl)-2-(trifluoromethyl)thiophen-3-yl)methoxy)phenyl)propan-1-ol] | −9 | – | −44 | – | –
3 | COc1ccc(-c2nsc(C(F)(F)F)c2COc2ccc(CCC(=O)O)c(C)c2C)c(F)c1 [Cpd 120, 3-(4-{[3-(2-Fluoro-4-methoxyphenyl)-5-(trifluoromethyl)isothiazol-4-yl]methoxy}-2,3-dimethylphenyl)propanoic acid] | – | – | – | 310 nM | 107 nM
4 | CCc1ccc(-c2snc(Cl)c2COc2ccc(CCC(=O)O)c(C)c2C)cc1 [Cpd 85, 3-(4-[[3-chloro-5-(4-ethylphenyl)-1,2-thiazol-4-yl]methoxy]-2,3-dimethylphenyl)propanoic acid] | −29 | −48 | −49 | – | –
5 | COc1ccc(-c2csc(C(F)(F)F)c2COc2c(F)cc(CCC(=O)O)cc2F)cn1 [Cpd 42, 3-(3,5-difluoro-4-((4-(6-methoxypyridin-3-yl)-2-(trifluoromethyl)thiophen-3-yl)methoxy)phenyl)propanoic acid] | −14 | – | −44 | – | –
6 | OCCCc1ccc(OCc2c(Cl)nsc2-c2ccc(Cl)cc2)c(F)c1F [Cpd 102, 3-(4-((3-chloro-5-(4-chlorophenyl)isothiazol-4-yl)methoxy)-2,3-difluorophenyl)propan-1-ol] | – | – | −32 | – | –
7 | Cc1ccc(-c2snc(Cl)c2COc2c(F)cc(CCC(=O)O)c(F)c2F)c(F)c1 [Cpd 107, 3-(4-{[3-Chloro-5-(2-fluoro-4-methylphenyl)isothiazol-4-yl]methoxy}-2,3,5-trifluorophenyl)propanoic acid] | – | – | – | 118 nM | 89 nM
8 | CC(C)Oc1cc(C(F)(F)F)sc1COc1c(F)cc(CCC(=O)O)cc1F [Cpd 16, 3-(3,5-Difluoro-4-{[3-(1-methylethoxy)-5-(trifluoromethyl)thiophen-2-yl]methoxy}phenyl)propanoic acid] | – | – | – | 1510 nM | 382 nM
9 | O=C(O)CCc1ccc(OCc2c(C(F)(F)F)nsc2-c2ccc(Cl)cc2)c(Cl)c1Cl [Cpd 181, 3-(2,3-Dichloro-4-{[5-(4-chlorophenyl)-3-(trifluoromethyl)isothiazol-4-yl]methoxy}phenyl)propanoic acid] | – | – | – | 819 nM | 274 nM
10 | OCCCc1cc(F)c(OCc2c(-c3ccc(Cl)cc3)nsc2C(F)(F)F)c(F)c1 [Cpd 100, 3-(4-[[3-(4-chlorophenyl)-5-(trifluoromethyl)-1,2-thiazol-4-yl]methoxy]-3,5-difluorophenyl)propan-1-ol] | – | −42 | −39 | – | –
11 | OCCCc1cc(F)c(OCc2c(-c3ccc(Cl)cc3)csc2C(F)(F)F)c(F)c1 [Cpd 46, 3-(4-[[4-(4-chlorophenyl)-2-(trifluoromethyl)thiophen-3-yl]methoxy]-3,5-difluorophenyl)propan-1-ol] | −26 | −75 | −49 | – | –
12 | Cc1c(CCC(=O)O)ccc(OCc2c(C(C)(C)C)nsc2C(F)(F)F)c1C [Cpd 198, 3-(4-{[3-tert-Butyl-5-(trifluoromethyl)isothiazol-4-yl]methoxy}-2,3-dimethylphenyl)propanoic acid] | – | – | – | 1940 nM | 405 nM
